Data: US20230381201A1, “METHODS AND COMPOSITIONS FOR TREATING FIBROTIC DISEASES” (MAX BioPharma, Inc., priority 2020, published 2023)

Tests used:
[1] = tested on: TGFβ target genes; experiment: Basal expression of TGFβ target genes by Q-RT-PCR in primary human liver stellate cells; assay type: cell-based; conditions: DMEM 1% FBS, 48 hours, normalized to GAPDH, FIG. 1, p<0.01 vs. control
Experimental: Primary human liver stellate cells were treated in DMEM containing 1% fetal bovine serum (FBS) for 24 hours. Next, they were treated with control vehicle or Oxy210. After 48 hours, RNA was extracted and analyzed by Q-RT-PCR for the expression of the genes as indicated and normalized to GAPDH expression.

[2] = tested on: profibrogenic genes; experiment: Basal expression of profibrogenic genes by Q-RT-PCR in primary human pericytes; assay type: cell-based; conditions: DMEM 5% FBS, 72 hours, normalized to GAPDH, FIG. 2, p<0.01 vs. control
Experimental: Primary human pericytes were treated with control vehicle or Oxy210 for 72 hours in DMEM containing 5% FBS. RNA was extracted and analyzed by Q-RT-PCR for the expression of profibrotic genes and normalized to GAPDH expression.

[3] = tested on: Primary human renal proximal tubular epithelial cells; experiment: TGFβ-induced epithelial mesenchymal transition (EMT) of renal tubular epithelial cells, Q-RT-PCR of EMT markers and Gli1; assay type: cell-based; conditions: TGFβ 10 ng/mL, 48 hours, FIG. 4, p<0.01 vs. TGFβ
Experimental: Primary human renal proximal tubular epithelial cells cultured in RPMI containing 1% FBS were treated with TGFβ (10 ng/mL) in the absence or presence of Oxy210 for 48 hours. RNA was extracted and analyzed by Q-RT-PCR for the expression of the EMT markers and Gli1 and normalized to GAPDH expression.

[4] = tested on: IMR-90 cells; experiment: IMR-90 lung fibroblast cell proliferation (cell count); assay type: cell-based; conditions: IMR-90 normal human lung fibroblast cells, DMEM 1% FBS, 5 days; FIG. 5, p<0.01 vs. control
Experimental: IMR-90 cells were treated with Oxy210 at the concentrations as indicated in DMEM containing 1% FBS for 5 days and then were trypsinized and counted.

[5] = tested on: LL97A cells; experiment: LL97A lung fibroblast cell proliferation (cell count); assay type: cell-based; conditions: LL97A human lung fibroblast cells from a subject with idiopathic pulmonary fibrosis, F12K 1% FBS, 5 days; FIG. 6
Experimental: LL97A cells were treated with Oxy210 at the concentrations as indicated in F12K containing 1% FBS for 5 days and then were trypsinized and counted.

[6] = tested on: IMR-90 cells; experiment: Basal profibrotic gene expression by Q-RT-PCR in IMR-90 cells; assay type: cell-based, human; conditions: F12K 1% FBS, 72 hours, FIG. 7
Experimental: IMR-90 cells were treated in F12K medium containing 1% FBS and Oxy210 at the indicated concentrations for 72 hours. RNA was then extracted and analyzed by Q-RT-PCR for the expression of the genes as indicated and normalized to GAPDH expression.

[7] = tested on: LL97A cells; experiment: TGFβ-induced COL1A1 and a-SMA expression by Q-RT-PCR in LL97A cells; assay type: cell-based, human; conditions: 48 hours, FIG. 8
Experimental: LL97A cells were pretreated in F12K medium containing 1% FBS for 24 hours and then the cells were treated with TGFβ in the absence or presence of Oxy210 at the indicated concentrations. After 48 hours, RNA was extracted and analyzed by Q-RT-PCR for the expression of the genes as indicated and normalized to GAPDH expression.

[8] = tested on: LL97A cells; experiment: Basal COL1A1 expression by Q-RT-PCR in LL97A cells; assay type: cell-based, human; conditions: F12K 1% FBS, 72 hours, FIG. 9, p<0.01 vs control
Experimental: LL97A cells were treated in F12K medium containing 1% FBS and Oxy210 at the indicated concentrations for 72 hours. RNA was then extracted and analyzed by Q-RT-PCR for the expression of the genes as indicated and normalized to GAPDH expression.

[9] = tested on: C57BL/6 mice; experiment: Bleomycin-induced pulmonary fibrosis in mice, H&E staining of lung sections; assay type: in vivo; conditions: bleomycin once intratracheally, FIG. 10
Experimental: C57BL/6 mice were treated once intratracheally with bleomycin with or without pirfenidone or Oxy210.

**Q.** With C[C@]12CC[C@H]3[C@@H](CC=C4C[C@@H](O)CC[C@@]43C)[C@@H]1CC[C@@H]2[C@](C)(O)CCc1cccnc1 [Oxy210] as the compound, how does the “basal expression of TGFβ target genes” value [1] read?
**A.** inhibition of basal expression of TGFβ target genes

**Q.** And the “basal expression of profibrogenic genes” value [2]?
**A.** inhibition of basal expression of profibrogenic genes

**Q.** What about the “TGFβ-induced epithelial mesenchymal transition (EMT)” value [3] of the same compound?
**A.** inhibition of TGFβ-induced epithelial mesenchymal transition (EMT)

**Q.** What about the cell proliferation [4] of the same compound?
**A.** inhibition of IMR-90 normal human lung fibroblast cell proliferation

**Q.** And the cell proliferation [5]?
**A.** inhibition of proliferation of LL97A human lung fibroblast cells

**Q.** And the “basal profibrotic gene expression” value [6]?
**A.** inhibits basal profibrotic gene expression

**Q.** And the “TGFβ-induced COL1A1 expression” value [7]?
**A.** inhibits

**Q.** What about the “TGFβ-induced a-SMA expression” value [7] of the same compound?
**A.** inhibits

**Q.** And the “basal COL1A1 expression” value [8]?
**A.** inhibits basal COL1A1 expression

**Q.** What about the “bleomycin-induced damages to the lung architecture” value [9] of the same compound?
**A.** clear beneficial effect
